Article PMC10465233, “Lys-urea-Aad, Lys-urea-Cmc and Lys-urea-Cms as potential pharmacophores for the design of PSMA-targeted radioligands to reduce off-target uptake in kidneys and salivary glands” (Theranostics, 2023)

System: LNCaP tumor-bearing mice
Test: Ex vivo biodistribution in LNCaP tumor-bearing mice
Set-up: species or system mouse
Description: Imaging, biodistribution and radioligand therapy experiments were performed following previously published procedures using male NOD-scid IL2Rg^null (NSG) or NOD.Cg-Rag1^tm1MomIl2rg^tm1Wjl/SzJ (NRG) mice [10]-[12],[14]-[15]. The experiments were conducted according to the guidelines established by the Canadian Council on Animal Care and approved by Animal Ethics Committee of the University of British Columbia. The mice were briefly sedated by inhalation of 2% isoflurane in oxygen, and implanted subcutaneously with 1×10^7 LNCaP cells behind the left shoulder. The mice were imaged or used in biodistribution studies when the tumor grew to 5-8 mm in diameter over a period of 4-5 weeks.
For biodistribution studies, the mice were injected with the radioligand (2-4 MBq) as described above. For blocking, the mice were co-injected with nonradioactive DCFPyL (0.5 mg). At predetermined time points, the mice were sedated by isoflurane inhalation and euthanized by CO2 inhalation. Blood was withdrawn by cardiac puncture, and organs/tissues of interest were collected, weighed and counted using an automatic gamma counter (Tables S4-S7).

For `COc1ccc(CCCC(=O)NCC(=O)N[C@@H](CCCCNC(=O)CN2CCN(CC(=O)[O-])CCN(CC(=O)[O-])CCN(CC(=O)[O-])CC2)C(=O)NC[C@H]2CC[C@H](C(=O)N[C@@H](Cc3c4ccccc4cc4ccccc34)C(=O)NCCCC[C@H](NC(=O)N[C@@H](COCC(=O)O)C(=O)O)C(=O)O)CC2)cc1.[177Lu+3]` [[^177Lu]Lu-HTK04028], the Adrenal glands uptake (1 h post-injection) was 3.25 ± 0.34 %ID/g, the Blood uptake (1 h post-injection) was 17.7 ± 2.10 %ID/g and the “Blood:Salivary gland uptake ratio” value (1 h post-injection) was 6.93 ± 0.33. For the same molecule, the Bone uptake (1 h post-injection) was 0.99 ± 0.21 %ID/g, the Brain uptake (1 h post-injection) was 0.26 ± 0.03 %ID/g and the Fat uptake (1 h post-injection) was 1.26 ± 0.21 %ID/g. It also gave a Heart uptake (1 h post-injection) of 4.15 ± 0.31 %ID/g, an Intestines uptake (1 h post-injection) of 1.23 ± 0.24 %ID/g and a Kidneys uptake (1 h post-injection) of 8.30 ± 1.58 %ID/g. It also gave a Lacrimal glands uptake (1 h post-injection) of 0.51 ± 0.23 %ID/g, a Liver uptake (1 h post-injection) of 2.93 ± 0.51 %ID/g and a Lungs uptake (1 h post-injection) of 7.88 ± 1.77 %ID/g. It also gave a Muscle uptake (1 h post-injection) of 1.32 ± 0.19 %ID/g, a Pancreas uptake (1 h post-injection) of 1.53 ± 0.22 %ID/g and a Salivary glands uptake (1 h post-injection) of 2.55 ± 0.21 %ID/g. It also gave a Spleen uptake (1 h post-injection) of 1.53 ± 0.23 %ID/g, a Stomach uptake (1 h post-injection) of 0.51 ± 0.18 %ID/g and a Testes uptake (1 h post-injection) of 2.26 ± 0.46 %ID/g. For the same molecule, the Thyroid uptake (1 h post-injection) was 3.30 ± 0.42 %ID/g, the Tumor uptake (1 h post-injection) was 19.0 ± 5.86 %ID/g and the “Tumor:Blood uptake ratio” value (1 h post-injection) was 1.11 ± 0.45. The “Tumor:Kidney uptake ratio” value (1 h post-injection) was 2.39 ± 0.99, the “Tumor:Muscle uptake ratio” value (1 h post-injection) was 14.5 ± 4.46 and the “Tumor:Salivary gland uptake ratio” value (1 h post-injection) was 7.60 ± 2.89. The Adrenal glands uptake (4 h post-injection) was 2.18 ± 0.33 %ID/g, the Blood uptake (4 h post-injection) was 12.2 ± 1.66 %ID/g and the “Blood:Salivary gland uptake ratio” value (4 h post-injection) was 7.09 ± 1.45. The Bone uptake (4 h post-injection) was 0.63 ± 0.10 %ID/g, the Brain uptake (4 h post-injection) was 0.19 ± 0.02 %ID/g and the Fat uptake (4 h post-injection) was 0.89 ± 0.24 %ID/g. It also gave a Heart uptake (4 h post-injection) of 2.67 ± 0.31 %ID/g, an Intestines uptake (4 h post-injection) of 1.04 ± 0.12 %ID/g and a Kidneys uptake (4 h post-injection) of 9.21 ± 2.76 %ID/g. For the same molecule, the Lacrimal glands uptake (4 h post-injection) was 0.39 ± 0.19 %ID/g, the Liver uptake (4 h post-injection) was 2.29 ± 0.55 %ID/g and the Lungs uptake (4 h post-injection) was 5.79 ± 0.44 %ID/g. It also gave a Muscle uptake (4 h post-injection) of 0.83 ± 0.09 %ID/g, a Pancreas uptake (4 h post-injection) of 1.24 ± 0.04 %ID/g and a Salivary glands uptake (4 h post-injection) of 1.75 ± 0.25 %ID/g. For the same molecule, the Spleen uptake (4 h post-injection) was 1.44 ± 0.31 %ID/g, the Stomach uptake (4 h post-injection) was 0.45 ± 0.06 %ID/g and the Testes uptake (4 h post-injection) was 2.66 ± 0.41 %ID/g. For the same molecule, the Thyroid uptake (4 h post-injection) was 2.30 ± 0.30 %ID/g, the Tumor uptake (4 h post-injection) was 42.6 ± 11.6 %ID/g and the “Tumor:Blood uptake ratio” value (4 h post-injection) was 3.60 ± 1.24. For the same molecule, the “Tumor:Kidney uptake ratio” value (4 h post-injection) was 4.89 ± 1.58, the “Tumor:Muscle uptake ratio” value (4 h post-injection) was 52.2 ± 17.4 and the “Tumor:Salivary gland uptake ratio” value (4 h post-injection) was 24.5 ± 5.95. For the same molecule, the Adrenal glands uptake (24 h post-injection) was 0.73 ± 0.13 %ID/g, the Blood uptake (24 h post-injection) was 0.82 ± 0.11 %ID/g and the “Blood:Salivary gland uptake ratio” value (24 h post-injection) was 1.88 ± 0.42. It also gave a Bone uptake (24 h post-injection) of 0.11 ± 0.02 %ID/g, a Brain uptake (24 h post-injection) of 0.02 ± 0.00 %ID/g and a Fat uptake (24 h post-injection) of 0.14 ± 0.02 %ID/g. The Heart uptake (24 h post-injection) was 0.36 ± 0.03 %ID/g, the Intestines uptake (24 h post-injection) was 0.23 ± 0.05 %ID/g and the Kidneys uptake (24 h post-injection) was 4.32 ± 0.58 %ID/g. For the same molecule, the Lacrimal glands uptake (24 h post-injection) was 0.05 ± 0.04 %ID/g, the Liver uptake (24 h post-injection) was 0.54 ± 0.09 %ID/g and the Lungs uptake (24 h post-injection) was 1.08 ± 0.72 %ID/g. The Muscle uptake (24 h post-injection) was 0.11 ± 0.02 %ID/g.
